# Experiments:
# Assay type in all cases: cell-based, human
# HaCaT keratinocytes [1] = assay: Single-cell gel electrophoresis (comet assay) of UV-induced DNA damage; settings: for percentage change in % DNA in the tail in protected cells compared to unprotected cells: n=3, t-test; for Mean % DNA Damage: 10J/cm^2 UVA
# Method: This measurement is based on the comet assay (single cell gel electrophoresis) which detects damage to nuclear DNA that result from nucleotide excision repair (NER) and nucleotide photooxidation. Using the lesion specific enzymes T4N5 that recognizes CPD and hOGG1 that recognizes 8-oxoGua, palythine was tested by comparing pure palythine compound with naturally occurring amphoteric MAA mixtures to that of industry accepted sun-filter controls.
# Powdered sunscreens were dissolved in PBS (Sigma-Aldrich, UK) at a concentration in which they can dissolve fully (0-0.3%). They were then applied (200ul/well) to wells of a 24 well plate containing a washed monolayer of cells. Cells were then irradiated and the sunscreen removed and washed post treatment.
# Irradiation was carried out on cells in monolayers at a distance of 3 cm (Solar Simulator) in cold PBS or PBS + sunscreen. The plate was always placed on a cooling platform at 4°C to avoid overheating of the cells. Unirradiated samples were maintained in PBS for the same time and temperature as irradiated samples.
# DNA damage was measured using the comet assay, using lesion specific enzymes to determine the type of damaged produced.
# Glass slides are pre-coated with 1% agarose and allowed to dry. Cells were treated with UV +/- sunscreens. Positive controls were treated with ice cold 0.03% Hydrogen Peroxide for 5 minutes, negative controls were kept in the same conditions as the treatments without UV exposure.
# After treatment cells were scraped gently with a cell scraper in EDTA solution to help dissociate cells and stop clumping. The cells (40ul) were then added to low melting point (LMP) agarose (160ul) and gently mixed. The final concentration of cells in the LMP agarose was 10,000 cells/100ul of agarose. Then 100ul of the agarose-cell solution was pipetted onto the pre-coated slides and a cover slip was placed onto the gels and left to set for 5-10 minutes then removed. Two replicates were placed on each slide. All steps were carried out on a cooled platform at 4°C. Slides were then places into lysis buffer (2.5M NaCl, 100mM EDTA, 10mM TRIS, 1% sodium sarcosinate, 1% Triton x-100, 10% DMSO) overnight at 4°C in the dark.
# Slides were then washed in ice-cold ddH2O (2x5 mins) in the dark and once in ice cold enzyme reaction buffer (0.4mM HEPES, imMKCl, 0.005mM EDTA, 0.02mg/ml BSA) for 5 minutes. After this step different lesions were detected using lesion specific enzymes.
# Cylcobutane pyrimidine dimers were measured using the T4 endonuclease V (T4endoV) enzyme. After washing, 50ul of enzyme diluted in reaction buffer (hOGG1- 3.2U/ml, T4EndoV - 0.1U/ml) or reaction buffer alone were added to each gel, a cover slip placed on top and left in a humidity chamber in the dark at 37°C for 45 minutes.
# After enzyme treatment coverslips were removed and transferred into ice-cold electrophoresis buffer (10mM NaOH, 200mM EDTA, pH13 in ddH2O) and incubated at 4°C in the dark for 20 minutes. Electrophoresis was then carried out in fresh electrophoresis buffer for 25 minutes at 25V (1V/cm) 300mA, at 4°C in the dark. Slides were then washed in neutralisation buffer (0.4M TRIS, pH7.5) for 2x 10 minutes, and then in ddH2O for 2x 5 minutes and slides were allowed to dry overnight.
# The DNA embedded in the slides was stained using Propidium Iodide solution (2.5ug/ml in PBS), 50ul of the solution was added to each gel and cover slip placed over. The slides were then analysed on a Zeiss Axiophot epifluorescence microscope (Carl Zeiss, Germany), with a green excitation filter (536nm) detected with a red emission at 617nm. Pictures covering the whole gel were taken, avoiding the outer edges, using a Nikon camera at a magnification of 10x. The images were then analysed using Comet Score Pro software (Tritek Corp, Summerduck, VA), typically scoring 150 individual comets per condition. […]
# HaCaT keratinocytes [2] = assay: Cell viability by neutral red uptake assay after irradiation; settings: 20J/cm2 of SSR; 0.3 %, 4 % or 10 % (w/v) palythine; 24 hrs later; n=3; p=<0.0001
# Method: All assays were performed on HaCat cells grown as a 70-80 % confluent monolayer in multiwell plates. They were washed three times in PBS and covered with palythine dissolved in PBS at differing concentrations (0, 0.1, 0.3 %, 4 % and 10 % w/v). The cells were then irradiated with either SSR or UVA radiation (5-20 J/cm^2 or 20 J/cm^2 respectively). After irradiation the palythine solution was removed and the cells washed a further three times and replaced in media or processed immediately depending on the experimental design.
# Cell viability was measured 24 hours post irradiation using the neutral red uptake assay. Neutral red solution (4µgml^-1 in growth medium) (Sigma, UK) was added to the cells and they were incubated at 37 °C, 5 % CO2 for 2 hrs. Cells were washed three times in PBS to remove excess neutral red solution and then the destain solution (50 % v/v ethanol, 49 % v/v ddH2O, 1 % v/v glacial acetic acid) was added. Optical density was measured at 540 nm.
# HaCaT keratinocytes were untreated, exposed to 20J/cm2 of SSR with PBS alone, 0.3 % (w/v), 4 % (w/v) or 10 % (w/v) of palythine or 10 % (w/v) palythine without exposure to UVR. Cell viability was measured 24 hrs later by the neutral red assay. Columns represent the mean ± SD (n=3).
# HaCaT keratinocytes [3] = assay: CPD DNA lesion formation by IHC-IF; settings: 20J/cm^2 SSR; palythine 0.3-10%w/v; immediately post exposure; n=3; p<0.0001
# Method: HaCat keratinocytes were irradiated with 20J/cm^2 of solar simulated UVR radiation with 0% (PBS alone), 0.3%, 4% or 10% of palythine. The relative formation of the CPD DNA lesion was measured by IHC-IF and the relative fluorescent intensity plotted. The data in figure 11 show protection by palythine against solar simulated UVR induced CPD formation by IHC-IF.
# The radiation procedure was carried out as described above. Cells were washed, then fixed in 2 % (v/v) paraformaldehyde with 0.5 % (v/v) Triton X-100 in PBS for 30 mins at 4 °C. DNA was then denatured by incubation in 2 M HCl for 10 mins at 37 °C. Nonspecific sites were blocked using blocking buffer of 20 % (v/v) goat serum and 0.1 % (v/v) triton x-100 in PBS for 30 mins at room temperature. The primary antibody used was Anti-CPD (Clone TDM-2) (Cosmobio, Tokyo, Japan) at 1:1000 in blocking buffer for 1 hr at room temperature. Alexafluor 488 was diluted in blocking buffer (1:200 dilution) and incubated for 1 hr at room temperature and finally DAPI was added for 10 mins. Washing was carried out (3x5 mins) between each step.
# All assays were performed on HaCat cells grown as a 70-80 % confluent monolayer in multiwell plates. They were washed three times in PBS and covered with palythine dissolved in PBS at differing concentrations (0, 0.1, 0.3 %, 4 % and 10 % w/v). […]
smiles,measurement,setting,value
COC1=C(NCC(=O)O)CC(O)(CO)CC1=N (stereo not drawn) [palythine],improved protection from DNA damage,HaCaT keratinocytes [1]; 0.3% palythine (48% damage) versus Gelyma composition at 4% (76% damage),58.33%
same,DNA damage,"HaCaT keratinocytes [1]; 0.3% palythine, from the applicant's data",48%
same,percentage change in % DNA in the tail in protected cells compared to unprotected cells,"HaCaT keratinocytes [1]; 5J/cm^2 solar simulated UVR, 0.3% palythine, figure 9",significant protection
same,percentage change in % DNA in the tail in protected cells compared to unprotected cells,"HaCaT keratinocytes [1]; 20J/cm^2 UVA, 0.3% palythine, figure 10",significant protection
same,Mean % DNA Damage,"HaCaT keratinocytes [1]; No Enzyme (single strand breaks / alkali labile sites), 0.1% palythine in PBS, mean percentage of tail DNA, n=1",14.263%
same,Mean % DNA Damage,"HaCaT keratinocytes [1]; No Enzyme (single strand breaks / alkali labile sites), 0.3% palythine in PBS, mean percentage of tail DNA, n=1",9.914%
same,Mean % DNA Damage,"HaCaT keratinocytes [1]; T4N5 (cyclobutane pyrimidine dimers, CPDs), 0.1% palythine",26.328%
same,Mean % DNA Damage,"HaCaT keratinocytes [1]; T4N5 (cyclobutane pyrimidine dimers, CPDs), 0.3% palythine",15.345%
same,"protection for the DNA lesions tested (general damage, CPD and 8oxoGua)","HaCaT keratinocytes [1]; comet assay and IHC-IF, palythine at 0.3% or greater, UVA and SSR induced damage, p=<0.05",significant protection
same,DNA damage caused by UVA and UVB exposure,HaCaT keratinocytes [1]; lesion specific enzymes T4N5 (CPD) and hOGG1 (8-oxoGua),significantly reduces DNA damage
same,protection against UVR induced cell death (cell viability),HaCaT keratinocytes [2],significant protection
same,CPD production compared to irradiated control,HaCaT keratinocytes [3],significant reduction
